Consider 90 compounds from the Bradley open melting point set (2014).

Each structure is given as a SMILES string. Several values for one entry are separate records, joined by “and”; a condition that tells them apart may be missing. Equal entries are not always repeated.

A word on the melting point: it is the temperature of the solid-liquid transition.

Regarding `OCc1ccccc1` [benzyl_alcohol], the melting point was -15 °C.

On to `CN(C)CCCN` [N,N-dimethyl-1,3-propanediamine], for which the melting point is -70 °C.

`CC(C)(C)c1cc(C=O)cc(C(C)(C)C)c1O` [3,5-di-tert-butyl-4-hydroxybenzaldehyde] came in with a melting point of 188 °C.

`O=C(c1ccccc1)N(O)c1ccccc1` [N-Hydroxy-N-phenylbenzamide] registered a melting point of 119 °C.

In the case of `C[C@]12CCC(=O)C=C1CC[C@@H]1[C@@H]2[C@@H](O)C[C@@]2(C)[C@H]1CC[C@]2(O)C(=O)CO` [Hydrocortisone], the melting point came to 218 °C.

As to `COc1ccc2c(c1)C(=O)C(=O)N2` [5-methoxyisatin], the melting point turned out to be 201 °C.

In turn, `CCCCCCCCCCCCS` [1-dodecanethiol] showed a melting point of -7 °C.

Regarding `c1ccc(Nc2ccccc2)cc1` [Diphenylamine], the melting point was found to be 53 °C.

As for `O=[N+]([O-])c1ccc(Cl)cc1` [4-chloronitrobenzene], the melting point amounted to 83.5 °C.

As to `Cc1c(C#N)c2ccccc2n1O` [1-hydroxy-2-methyl-1H-indole-3-carbonitrile], the melting point was 159 °C.

`CCOc1ccc(C=O)cc1` [4-ethoxybenzaldehyde] returned a melting point of 14 °C.

In the case of `[2H]OC(=O)C([2H])([2H])[2H]` [(~2~H_4_)Acetic acid], the melting point was 15.5 °C.

Compound `CC(C)C1=C(O)C(=O)C2=C(C(=O)CC3C(C)(C)CCCC23C)C1=O` (stereo not given) [7-Oxoroyleanone] gave a melting point of 198 °C.

For the compound `Clc1cc(Cl)c(-c2ccccc2)cc1Cl` [2,4,5-trichlorobiphenyl], the melting point was determined as 78 °C.

In turn, `CC(=O)c1ccc([N+](=O)[O-])cc1` [p-nitroacetophenone] returned a melting point of 80 °C.

For the compound `OB(O)c1cccnc1F` [2-fluoropyridine-3-boronic acid], the melting point amounted to 172 °C.

As for `CN(CCO)CCO` [N-methyldiethanolamine], the melting point was -21 °C.

`N=c1nc(O)c2ncn(COCCO)c2[nH]1` [Acyclovir] returned a melting point of 255 °C.

In the case of `CC(CCc1ccccc1)NCC(O)c1ccc(O)c(C(N)=O)c1` (stereo not given) [Labetalol], the melting point is 196 °C.

The compound `O=C(O)c1cccc([N+](=O)[O-])c1Cl` [2-chloro-3-nitrobenzoic acid] registered a melting point of 184 °C.

For the compound `O=P1(NCCCl)OCCCN1CCCl` (stereo not given) [ifosfamide], the melting point is 45.5 °C and 48 °C.

Compound `Cc1ccc2c(c1)no[n+]2[O-]` [5-methylbenzofuroxan] gave a melting point of 97 °C.

`CC(C)[C@@H](C)/C=C/[C@@H](C)[C@H]1CC[C@H]2C3=CC=C4C[C@@H](O)CC[C@]4(C)[C@H]3CC[C@]12C` [(3beta,22E)-Ergosta-5,7,22-trien-3-ol] showed a melting point of 160 °C.

`Cn1cc[nH]c1=S` [Methimazole] yielded a melting point of 146 °C.

`c1ccc2nccnc2c1` [quinoxaline]: the melting point was found to be 30 °C.

Compound `CF` [fluoromethane] had a melting point of -142 °C.

In turn, `CCCCCCc1ccc(O)cc1O` [4-n-hexylresorcinol] returned a melting point of 66 °C.

The compound `COc1ccc(I)cc1` [4-iodoanisole] came in with a melting point of 50 °C.

Turning to `Oc1c(Cl)cccc1Cl` [2,6-dichlorophenol], the melting point was determined as 67 °C.

In the case of `CC(C)C1=C(O)C(=O)C2=C(CCC3C(C)(C)CCCC23C)C1=O` (stereo not drawn) [7alpha-12-Hydroxy-8,12-abietadiene-11,14-dione], the melting point turned out to be 181 °C.

With `CC(=O)Oc1ccc(CC#N)cc1` [p-acetoxy_phenylacetonitrile], the melting point was found to be 50 °C.

`Cc1ccc(-c2ccc(/C=C3\N=C(c4ccccc4)OC3=O)o2)cc1` had a melting point of 150 °C.

As for `CC(Oc1cccc(Cl)c1)C(=O)O` (stereo not given) [2-(3-chlorophenoxy)propionic acid], the melting point came to 115 °C.

`Cc1ccc(Cc2ccccc2)cc1` [4-methyldiphenylmethane] displayed a melting point of 5 °C.

On to `CC(C)=C/C(C)(C)C` [2,4,4-trimethyl-2-pentene], for which the melting point is -106 °C.

Consider `ICI` [diiodomethane], for which the melting point amounted to 6 °C.

`CCCN(CC1CC1)c1c([N+](=O)[O-])cc(C(F)(F)F)cc1[N+](=O)[O-]` [profluralin] had a melting point of 32.5 °C.

`O=C(O)C(F)(F)F` [Trifluoroacetic acid]: the melting point is -15 °C.

`Cc1cc2cc(Cl)ccc2[nH]1` [5-chloro-2-methylindole] displayed a melting point of 112 °C.

With `O=S(=O)(Cl)c1ccccc1` [Benzenesulfonyl chloride], the melting point came out at 15 °C.

Consider `O=C(O)c1cc(=O)[nH]c(=O)[nH]1` [orotic acid], for which the melting point was found to be 345 °C.

As for `Nc1cc(N2CCCCC2)nc(N)[n+]1[O-]` [minoxidil], the melting point worked out at 248 °C.

`CC(CP(=O)(O)O)P(=O)(O)O` (stereo not given) [propylenediphosphonic acid] gave a melting point of 178 °C.

`OB(O)c1cc2ccccc2s1` [benzo[b]thiophene-2-boronic acid] came in with a melting point of 255 °C.

On to `Nc1ccccc1C1C=c2ccccc2=N1` (stereo not given) [2-(1H-Indol-2-yl)anilin], for which the melting point came out at 153 °C.

`NC(=O)c1ccc(F)c(Cl)c1` [3-chloro-4-fluorobenzamide] gave a melting point of 146 °C.

`O=Cc1ccc(I)cc1` [p-iodobenzaldehyde] registered a melting point of 78 °C.

Turning to `Cc1cc(Cl)cc([N+](=O)[O-])c1N` [4-chloro-2-methyl-6-nitroaniline], the melting point came out at 122 °C.

Regarding `Cc1nnc2n1-c1ccc(Cl)cc1C(c1ccccc1Cl)=NC2` [Triazolam], the melting point was 234 °C.

For `CC(C)C(=O)C(C)C` [diisopropyl ketone], the melting point is -69 °C.

Consider `CC(=O)c1ccccc1[N+](=O)[O-]` [2'-nitroacetophenone], for which the melting point turned out to be 27 °C.

`CCCCCCCCN(C)C` [N,N-dimethyl-n-octylamine] showed a melting point of -57 °C.

Take `Cc1ccc(S(=O)(=O)CC(=O)O)cc1` [p-toluenesulfonylacetic acid]: the melting point amounted to 118 °C.

On to `Oc1ccc(-c2ccc(O)cc2)cc1` [4,4'-dihydroxybiphenyl], for which the melting point was found to be 282 °C.

`[C-]#[N+]c1cnn(-c2ncnc3c2cnn3C)c1/C=C/OCC` showed a melting point of 155 °C.

`CCCCOC(=O)c1ccccc1` [N-butyl benzoate] displayed a melting point of -22 °C.

`CC(=O)N1CCN(c2ccc(OC[C@@H]3CO[C@@](Cn4ccnc4)(c4ccc(Cl)cc4Cl)O3)cc2)CC1` [Ketoconazole] yielded a melting point of 146 °C.

Take `O=C(CO)[C@@]3(O)CC[C@H]2[C@@H]4CC\C1=C\C(=O)\C=C/[C@]1(C)[C@H]4C(=O)C[C@@]23C` [prednisone]: the melting point is 234 °C (2×) and 237 °C.

On to `O=C(O)C(O)C(O)C(=O)O` (stereo not given) [tartaric acid], for which the melting point is 147 °C.

The compound `Nc1nc2c(ncn2COCCO)c(=O)[nH]1` [acyclovir] registered a melting point of 265 °C.

Turning to `OCc1ccc(Cl)cc1` [(4-Chlorophenyl)methanol], the melting point was found to be 71 °C.

`Cc1c2ccccc2cc2ccccc12` [9-Methylanthracene]: the melting point was 78 °C.

Compound `O=C(CBr)c1cccs1` [2-(bromoacetyl)thiophene] came in with a melting point of 31 °C.

The compound `C[C@]12CCC(=O)C=C1CC[C@@H]1[C@@H]2[C@@H](O)C[C@@]2(C)[C@H]1CC[C@]2(O)C(=O)CO` [hydrocortisone] registered a melting point of 214 °C.

`C=CCCCC` [1-hexene]: the melting point is -140 °C.

`COC(=O)c1cc2ccccc2cn1` [methyl isoquinoline-3-carboxylate] displayed a melting point of 86 °C.

For the compound `CC(=O)CCc1ccc(CCC(C)=O)cc1` [4,4'-benzene-1,4-diyldibutan-2-one], the melting point was 56 °C.

As for `CC(C)(C)NCC(O)c1ccc(O)c(CO)c1` (stereo not given) [Salbutamol], the melting point came to 158 °C.

As to `O=C(O)CCCCCCCC(=O)O` [Azelaic Acid], the melting point was found to be 106 °C.

`OC[C@@H](O)[C@H](O)[C@@H](O)CO` [xylitol]: the melting point is 94 °C.

As for `O=C1CCCN1` [2-pyrrolidinone], the melting point turned out to be 24 °C.

For the compound `O=C(O)C(Cl)(Cl)Cl` [Trichloroacetic acid], the melting point came out at 57 °C.

The compound `O=[N+]([O-])c1ccc(F)c([N+](=O)[O-])c1` [1-Fluoro-2,4-dinitrobenzene] had a melting point of 27 °C.

For `Clc1cc(Cl)cc(I)c1` [1,3-dichloro-5-iodobenzene], the melting point was 57 °C.

In turn, `CC(=O)/C(=N/Nc1ccc(Cl)cc1)C(=O)C(F)(F)F` showed a melting point of 125 °C.

`COc1ccc2nc(N)sc2c1` [6-Methoxy-1,3-benzothiazol-2-amine]: the melting point was determined as 166 °C.

Take `Cc1ccc(I)cc1` [4-iodotoluene]: the melting point is 34 °C.

Regarding `CC(=O)Nc1cccc2c([N+](=O)[O-])cccc12` [N-(5-nitronaphthalen-1-yl)acetamide], the melting point stood at 218 °C.

Regarding `CCCCCCCCCCCCCC(C)C` [2-Methylpentadecane], the melting point was -7 °C.

`CC(C)(C)c1ccc(C(=O)O)cc1` [4-tert-butylbenzoic acid] gave a melting point of 166 °C.

As to `OC[C@@H]1[C@H](CO)[C@@H]2C=C[C@H]1C2` [5-norbornene-2-endo,3-endo-dimethanol], the melting point came out at 84 °C.

Regarding `O=C(O)c1ccccc1` [benzoic_acid], the melting point stood at 123 °C.

As to `OB(O)c1ccc(C2CCCCC2)cc1` [4-cyclohexylbenzeneboronic acid], the melting point is 220 °C.

Take `Cc1cc(C)c(C(=O)O)c(C)c1` [2,4,6-trimethylbenzoic acid]: the melting point was determined as 154 °C.

For `COc1ccc(N)c(C)c1` [4-Methoxy-2-methylaniline], the melting point stood at 13.5 °C.

Turning to `CCOc1cc(C)ccc1O` [2-ethoxy-4-methylphenol], the melting point came to 29 °C.

`N#CCc1cccc(CC#N)c1` [1,3-phenylenediacetonitrile] gave a melting point of 34 °C.

On to `Cn1nc(CC#N)c2c(N)ncnc21`, for which the melting point was found to be 137 °C.

Consider `c1ccc(CCc2ccccc2)cc1` [bibenzyl], for which the melting point turned out to be 55 °C.

As for `Nc1c(Cl)cc(Cl)cc1Cl` [2,4,6-trichloroaniline], the melting point was found to be 77 °C.
